Measurements from patent US20120149663A1, “BORONIC ACID COMPOSITIONS AND METHODS RELATED TO CANCER” (GEORGETOWN UNIVERSITY, priority 2009, published 2012).
Like-named read-outs stand apart in the source and are kept apart here.

Assays:
[1] = tested on: ER+, estrogen-dependent human breast cancer MCF-7 cell line; test: Cell growth assay (WST-1 assay), MCF-7; assay type: cell-based; conditions: for MCF-7 cell growth inhibition (in words): MCF-7, WST-1
Procedure: Results are the mean value of triplicate samples. […] Cell viability was finally determined by adding WST-1 reagent and measuring the optical absorbance at […] and 630 nm as described in “Materials and methods”. […] The IC50 for each cell line was calculated using graph pad prism. Data are expressed as mean (SEM) of triplicate samples. […] The IC50 for each cell line was calculated using graph pad prism. Data are expressed as mean (SEM) of triplicate sample. ER-Positive (MCF-7) human breast carcinoma cell line was used in this study. The human breast cell lines MCF-7 (HTB-22) were provided by the tissue culture core facility at Lombardi Comprehensive Cancer Center, Georgetown University Medical Center. […] Robert Clarke from the Georgetown University Medical Center. […] The effect of cis-4 and trans-4 or resveratrol on cell growth was determined by WST-1 assay. Briefly, cells were seeded into a 96-well plate at 3,500 cells per well in DMEM containing 10% FBS. After overnight incubation, cells were treated with the compounds (1-100 μM) for 48 h and 72 h at 37° C. Control cells were treated with an equal amount of DMSO. After the indicated incubation time, cell viability was measured by WST-1 assay according to the manufacturer's instructions (Roche). […] The water soluble tetrazolium salt of WST-1 is converted into orange formazan by dehydrogenase in the mitochondria of living cells. The formazan absorbance, which correlates to the number of living cells, was recorded at wavelengths of 450 nm and 630 nm using a microplate reader (Ultramark, Microplate Imaging System, Bio-Rad). The GI50 was calculated from the graph of the log of compound concentration versus the fraction of the surviving cells.

[2] = tested on: CL 10.3 cells (MCF-7 MDR, over-expresses the MDR gene); test: Cell growth assay (WST-1 assay), multidrug resistant CL 10.3; assay type: cell-based, human; conditions: for Activity in multidrug resistant cells (in words): CL 10.3 compared with MCF-7; for MDR GI50/non-MDR GI50: CL 10.3 versus MCF-7, 72 h; for GI50: CL 10.3 Breast (MDR), 72 h, read-out: Cell Survival (WST-1 assay, GI50, 72 h) CL 10.3; for P-glycoprotein substrate (in words): inferred from activity in MDR cell line CL 10.3
Procedure: IC50 value (the concentration yielding 50% growth inhibition) was extrapolated from the graph of the log of compound concentration versus the fraction of surviving cells. The 1050 for each cell line was calculated using graph pad prism. Data are expressed as mean (SEM) of triplicate sample. Results are mean value of triplicate samples.
ER-Positive (MCF-7) human breast carcinoma cell line was used in this study. The human breast cell lines MCF-7 (HTB-22) were provided by the tissue culture core facility at Lombardi Comprehensive Cancer Center, Georgetown University Medical Center. MCF-7^MDR (CL 10.3) cells were a gift from Dr. Robert Clarke from the Georgetown University Medical Center. MCF-7, and CL 10.3 cells were maintained in DMEM (Biofluids, Frederick, Md.) supplemented 10% heat inactivated fetal bovine serum (FBS), 2 mM L-glutamine, and 50 μg/mL each of antibiotics, namely penicillin, streptomycin, and neomycin at 37° C. in a humidified incubator containing 5% CO2.
(§1) The effect of cis-4 and trans-4 or resveratrol on cell growth was determined by WST-1 assay. Briefly, cells were seeded into a 96-well plate at 3,500 cells per well in DMEM containing 10% FBS. After overnight incubation, cells were treated with the compounds (1-100 μM) for 48 h and 72 h at 37° C. Control cells were treated with an equal amount of DMSO. After the indicated incubation time, cell viability was measured by WST-1 assay according to the manufacturer's instructions (Roche). Briefly, 20 μL of WST-1 solution was added in each well and incubated for 2-4 hours. The water soluble tetrazolium salt of WST-1 is converted into orange formazan by dehydrogenase in the mitochondria of living cells. The formazan absorbance, which correlates to the number of living cells, was recorded at wavelengths of 450 nm and 630 nm using a microplate reader (Ultramark, Microplate Imaging System, Bio-Rad). The GI50 was calculated from the graph of the log of compound concentration versus the fraction of the surviving cells.

MCF-7 cells [3] = conditions: MCF-7, 300 μM, Clin Cancer Res 2002; cited from earlier work
[4] = tested on: E2-mediated MCF-7 cell growth; test: DNA content in estrogen mediated MCF-7 cell growth; assay type: cell-based, human; conditions: E2 10^−9M constant
Procedure: After 5 days incubation, the DNA content of the treated cells was measured using a DNA fluorescence kit (Bio Rad #170-2480). Results are shown as the mean of triplicate samples±SD. The experiment was repeated twice with identical results. […] Cells were then seeded in 24 well plates at 10000 cells per well in 1 ml of estrogen depleted media. […] Cells were incubated at 37° C. for an additional 4 days. Media were removed and cells were frozen at −78° C. overnight and the DNA content in each well was measured according to the manufacturer's protocol (DNA Quantification Kit, Bi0-Rad). Results are represented as mean of triplicate sample and repeated the experiment with identical results.

MCF-7 cells [5] = test: Cell cycle analysis by flow cytometry (propidium iodide); assay type: cell-based, human; conditions: MCF-7, 30 μM, 16, 24, 48 h
Procedure: FIGS. 10A and 10B show the effect of compounds on cell cycle distribution in MCF-7 breast cancer cell lines. A. […] B. Percentage of DNA distribution of trans-4 in G1 phase was presented in a bar graph. Results are represented as a mean of triplicate samples. The experiment was repeated thrice with identical results. The effect of cis-4, trans-4 or resveratrol on cell cycle progression was analyzed by flow cytometry. Cells were seeded in 6-well plates and treated with 30 μM of compound 1 or 2 at different time intervals (16, 24, 48 h). Cells were trypsinized, centrifuged at 2000 rpm and cell pellets were collected. Pellets were washed with 1×PBS, permeabilized with 70% (v/v) ethanol, resuspended in 1 ml of PBS containing 1 mg/ml RNase and […] propidium iodide, incubated in the dark for 30 min at room temperature, and analysed by a FACSort Flow Cytometer (Becton Dickinson, San jose, CA). The cell cycle distribution was evaluated on DNA plots using the Modfit software (Verity softwarehouse, Topsham, Me.).

MCF-7 cells [6] = test: Combination with flavopiridol, WST-1 cell viability; assay type: cell-based, human; conditions: for Sensitization to flavopiridol (in words): MCF-7; for GI50: Homo sapiens, MCF7
Procedure: as §1, with “A Wst-1 assay was performed to measure the cell viability as mentioned in the methods. GI50 are the average of triplicate samples and the experiment was repeated thrice with identical results. The effect” for “The effect”, “instructions (Roche). […] The water” for “instructions (Roche). Briefly, 20 μL of WST-1 solution was added in each well and incubated for 2-4 hours. The water”

[7] = tested on: cdk4, cdk2, cyclin E, cyclin D1 and pRb in MCF-7 cells; test: Western blot of G1 cell cycle proteins; assay type: cell-based, human; conditions: MCF-7, 24 h and 48 h, immunoblot
Procedure: MCF-7 cells were treated with the indicated concentrations of compound 2 for 24 hours and 48 hours and cell lysates were analyzed by immunoblotting. Protein expression of positive regulators such as cyclin D1, Cdk4, cyclinE, Cdk2 and phospho-Rb were detected by their specific antibodies. Human β-actin was analyzed as a control of gel loading. Twenty-micrograms of lysate was used for each experimental condition.
Western blotting was performed as previously published (J Biol Chem 2004, 279, 38903-38911). In brief, cell pellets were collected at the indicated times after treatment with compounds, suspended in 100 μl, of lysis buffer (50 mM Tris-HCl, 150 mM NaCl, 1 mM EGTA, 1 mM EDTA, 20 mM NaF, […], 0.5% NP-40, 1% Triton X-100, 1 mM PMSF, 5 μg/ml aprotinin, 5 μg/ml leupeptin), vortexed twice and incubated in an ice bath for 30 min Lysates were cleared by centrifugation at 12000 rpm for 15 min at 4° C. and protein was estimated by detergent compatible BCA protein assay kit (Pierce). Equivalent amounts of total proteins were resolved by SDS-PAGE (10%) and transferred to PVDF membranes. Membranes were blocked by 5% non-fat powdered milk in TBST overnight. […]

[8] = Stability compared with resveratrol; assay type: physicochemical
[9] = MCF-7, 48 h, read-out: Cell Survival (WST-1 assay, GI50) 48 hours
[10] = MCF-7, 72 h, read-out: Cell Survival (WST-1 assay, GI50) 72 hours

CC(=O)O[C@H]1C(=O)[C@@]2(C)[C@H]([C@H](OC(=O)c3ccccc3)[C@]3(O)C[C@H](OC(=O)[C@H](O)[C@@H](NC(=O)c4ccccc4)c4ccccc4)C(C)=C1C3(C)C)[C@]1(OC(C)=O)CO[C@@H]1C[C@@H]2O [Paclitaxel, reference compound]
MCF-7 cell growth inhibition (in words) [1]: strongly inhibits MCF-7 cell growth
Activity in multidrug resistant cells (in words) [2]: has no effect on CL 10.3 cells
MDR GI50/non-MDR GI50 [2]: >25,000
GI50 ([2]; Homo sapiens, MCF7): > 50 µM

Oc1ccc(C=Cc2cc(O)cc(O)c2)cc1 [Resveratrol, reference compound]
Cell cycle arrest by resveratrol in previous studies (in words) (MCF-7 cells [3]): S-phase cell cycle arrest
Effect on E2-mediated MCF-7 cell growth (in words) [4]: antagonizes E2-mediated MCF-7 cell growth
Effect on cell cycle distribution (in words) (MCF-7 cells [5]): works at the G2/M1 phase
Sensitization to flavopiridol (in words) (MCF-7 cells [6]): does not sensitize the MCF-7 cells incubated with flavopiridol

CN1CC[C@H](c2c(O)cc(O)c3c(=O)cc(-c4ccccc4Cl)oc23)[C@H](O)C1 [flavopiridol, reference compound]
GI50 (MCF-7 cells [6]; MCF-7, 10 μM trans-4 for 24 hours then flavopiridol 48 hours, read-out: GI50, combination of trans-4 with flavopiridol): 0.018 µM
GI50 (MCF-7 cells [6]; MCF-7, flavopiridol alone, 48 h, read-out: GI50, flavopiridol only): 0.3 µM

COc1ccc(/C=C/c2cc(OC)c(OC)c(OC)c2)cc1B(O)O [trans-4, 2-Methoxy-5-[(E)-2-(3,4,5-trimethoxyphenyl)vinyl]boronic acid]
Expression level of G1 cell cycle proteins (in words) ([7]; listed as YK-5-104): decreases the pRb levels
Expression level of G1 cell cycle proteins (in words) ([7]; listed as compound 2): decreases the expression level of cdk4, cdk2, cyclin E, cyclin D1 and pRb
GI50 [1, 9]: 36.6 µM
GI50 [1, 10]: 31.1 ± 0.05 µM
Activity relative to Resveratrol ([1]; breast cancer): 3 fold
Effect on E2-mediated MCF-7 cell growth (in words) [4]: does not have any effect on E2-induced cell growth
Sensitization to flavopiridol (in words) (MCF-7 cells [6]): modulates the flavopiridol mediated cell viability
Fold increase in growth inhibition compared with trans-4 (MCF-7 cells [6]; MCF-7, opposite administration: 100 nM flavopiridol 24 hours then trans-4): 7 fold
Fold increase of flavopiridol mediated growth inhibition compared with flavopiridol alone (MCF-7 cells [6]; MCF-7, trans-4 then flavopiridol): 16.6 fold
GI50 [2]: 49.09 ± 0.001 µM
Activity in multidrug resistant cells (in words) [2]: equipotent in CL 10.3 and MCF-7 cells
Activity in multidrug resistant cells (in words) ([2]; listed as Compound 2): can work on multidrug resistant cell lines
MDR GI50/non-MDR GI50 [2]: 1.57
P-glycoprotein substrate (in words) [2]: likely not a substrate for P-glycoprotein
P-glycoprotein substrate (in words) ([2]; listed as YK-5-104): not a substrate for p-glycoprotein
Stability compared with Resveratrol (in words) [8]: more stable than Resveratrol

[(Z)-2-(3,5-dimethoxyphenyl)vinyl]phenylboronic Acid [cis-4]
GI50 [1, 9]: > 100 µM
GI50 [1, 10]: > 100 µM
MCF-7 cell growth inhibition (in words) [1]: does not show any growth inhibition at 100 μM
